Tests used:
[1] = system: P. aeruginosa IBRS P001; assay: Catheter biofilm eradication model (24 h old biofilm); type: cell-based, Pseudomonas aeruginosa
Protocol: For the catheter biofilm eradication assay, P. aeruginosa and MRSA were incubated in TSB with 2% glucose with 1 cm long catheters in 24-well plates at 37 °C for 24 h. […] Subsequently, the catheters were washed and treated, as described above.

[2] = system: P. aeruginosa IBRS P001; assay: Bacterial adhesion to HaCaT cells; type: cell-based, Pseudomonas aeruginosa
Protocol: HaCaT cells were grown until confluence in 24-well plates with an adhesive bottom. The medium was removed and DMEM without FBS containing the rutin (MIC and 0.5 MIC) was added. The samples were incubated at 37 °C for 15 min, and bacteria (P. aeruginosa IBRS P001 and MRSA IBRS MRSA 011) were added. After incubation at 37 °C for 1 h, the cells were washed three times with DMEM without FBS and lyzed with 1 mL of 1% (v/v) Tween-20 (SigmaAldrich, Germany) at 37 °C for 30 min. Afterwards, dilutions of the bacterial suspension in each well were made and seeded on Plate Count Agar plates. The number of CFU was determined after incubation at 37 °C for 18 h, and the percentage of adhered bacterial cells was calculated following the equation:% (adhesion relative to the control) = 100 × CFU (treated)/CFU (control)
With CFU (treated) representing the number of CFUs after the treatment of cells with rutin and CFU (control) representing the number of bacterial CFUs in the untreated sample. The solvent treated sample was used as the control.

[3] = system: mvfR; assay: RT-qPCR analysis of QS genes; type: cell-based, Pseudomonas aeruginosa; conditions: 0.5 MIC, 0.25 mg/mL, vs untreated control
Protocol: (§1) Reverse transcription-quantitative PCR (RT-qPCR) was performed to reveal the impact of rutin on the P. aeruginosa IBRS P001 quorum sensing (QS) regulatory genes expression. The total RNA was extracted from the P. aeruginosa IBRS P001 test strain (grown for 10 h, 37 °C, aerobically) cultivated in Mueller-Hinton medium and supplemented with rutin (0.250 mg/mL, final concentration) or without it by an RNeasy Mini Kit (Qiagen, Hilden, Germany). The same volume of the ethanol (solvent) was added in the positive control. The total RNA was then treated with DNase I using an Ambion DNA-freeTM Kit (ThermoFisher, Waltham, MA, USA) and reverse transcribed by a Rever-tAid RT Reverse transcription Kit (ThermoFisher, Waltham, MA, USA) according to the manufacturer’s instructions. […] Obtained data were normalized against the ribosomal gene rpsL as an internal control following the 2^−ΔΔCT method. Experiments were done in triplicate.

[4] = system: rhlR; assay: RT-qPCR analysis of QS genes; type: cell-based, Pseudomonas aeruginosa; conditions: 0.5 MIC, 0.25 mg/mL, vs untreated control
Protocol: as §1

[5] = system: lasR; assay: RT-qPCR analysis of QS genes; type: cell-based, Pseudomonas aeruginosa; conditions: 0.5 MIC, 0.25 mg/mL, vs untreated control
Protocol: as §1

[6] = system: pqsA; assay: RT-qPCR analysis of QS genes; type: cell-based, Pseudomonas aeruginosa; conditions: 0.5 MIC, 0.25 mg/mL, vs untreated control
Protocol: as §1

[7] = system: 24 h old P. aeruginosa IBRS P001 biofilms; assay: Biofilm eradication, MTT assay (cell viability); type: cell-based, Pseudomonas aeruginosa
Protocol: The impact of rutin on P. aeruginosa IBRS P001 biofilm formation was determined as previously described by estimating the metabolic activity of microbial cells using an MTT assay. […] The supernatants were then ejected and the biofilms washed with PBS. MTT reagent (200 μL, 0.5 mg/mL) was added and the plate was incubated at 37 °C in the dark for 2 h. The resulting dye was dissolved in DMSO and the absorbance was measured at 570 nm in a microtiter plate reader Multiskan™ FC Microplate Photometer, Thermo Scientific™. The inhibition percentage of biofilm cell viability was calculated:%Inhibition = [(A570control − A570sample)/A570control] × 100
The bacterial cells were incubated in TSB enriched with 2% glucose in 96-well plates (Sarstedt, Germany) with adhesive bottom at 37 °C for 24 h. After incubation, wells were washed with PBS, and rutin (MBC–4 MBC) in TSB with 2% glucose was added. Incubation continued at 37 °C for another 24 h. The planktonic cells were removed.
The assays continued as described above for the crystal violet antibiofilm assay for the measurement of biofilm mass, biofilm MTT assay for the interference with cell viability, Congo red binding assay for estimation of exopolysaccharide production, and eDNA assay.

[8] = system: MRSA IBRS MRSA 011; assay: Membrane permeability assay (nucleotide and protein leakage); type: cell-based, Staphylococcus aureus; conditions: rutin MIC; more significant increase in absorbance at 260 and 280 nm after 90 min
Protocol: The effect of rutin on membrane permeability (nucleotide and protein leakage) was evaluated as described earlier with some modifications. The culture of P. aeruginosa IBRS P001 and MRSA IBRS MRSA 011 was incubated overnight at 37 °C, washed, and suspended in 10 mM PBS in order to achieve the final density of 10^8 CFU/mL. Bacteria were incubated with rutin at a concentration equal to MIC for time intervals 0, 30, 60, and 90 min. Bacteria incubated with PBS were used as control. After incubation the mixture was filtered through a 0.22 μm pore size filter to remove […]. The optical density of the filtrate was measured at 260 and 280 nm with an Agilent/HP 8453 UV-Visible Spectrophotometer (Agilent Technologies, Santa Clara, CA, USA) at room temperature (25 °C).

[9] = system: P. aeruginosa MTCC 2488; set-up: method as in doi:10.1016/j.foodcont.2018.02.044; conditions: 48 h incubation, cited from earlier work
[10] = system: P. aeruginosa IBRS P001 elastase production; assay: Elastase assay (Elastin-Congo red); type: cell-based, Pseudomonas aeruginosa; conditions: 0.25 mg/mL (0.5 MIC), compared to the control
Protocol: After 48 h of incubation (37 °C, 180 rpm), the mixtures were collected and centrifuged at 15,700× g for 15 min. Quantification of the elastase activity was measured at 495 nm using a Plate Reader Infinite 200 pro (MTX Lab Systems, Vienna, VA, USA). An untreated culture supernatant was used as a positive control (supplemented with the solvent). The experiment was done in triplicate.

C[C@@H]1O[C@@H](OC[C@H]2O[C@@H](Oc3c(-c4ccc(O)c(O)c4)oc4cc(O)cc(O)c4c3=O)[C@H](O)[C@@H](O)[C@@H]2O)[C@H](O)[C@H](O)[C@H]1O [Rutin, rutin]
catheter biofilm eradicated ([1]; 2 MBC, 24 h old biofilm): 73.7%
biofilm cells remained viable after the treatment ([1]; 24 h old catheter biofilm, concentration not printed (MBC-4MBC tested, probably 4 MBC)): 10.9%
reduction of CFU adhered to human keratinocytes ([2]; 0.5 MIC, 0.25 mg/mL): 25%
reduction of CFU adhered to human keratinocytes ([2]; rutin MIC): 51%
decrease of relative expression [3]: 2.2 times
decrease of relative expression [4]: about 1.7 times
decrease of relative expression [5]: about 1.7 times
downregulation of relative mRNA level [6]: 3 fold
viability at 1000 µg/mL ([7]; Pseudomonas aeruginosa, MBC, 1 mg/mL, read-out: viability of cells within the biofilms): 92%
viability of cells within the biofilms ([7]; maximal concentration examined (4 MBC)): 55%
cell membrane integrity, in words [8]: disrupted
highest biofilm inhibition ([9]; 400 µg/mL): 45.33%
biofilm inhibition ([9]; sub-MIC concentrations 50–400 µg/mL): up to 50%
reduction of elastase production [10]: 91%
